# Data reported in US20230391760A1, “HETEROCYCLIC GLP-1 AGONISTS” (Gasherbrum Bio, Inc., priority 2020, published 2023).
# pEC50: −log10 of the molar value.
# Biological target: GLP-1 Receptor (Homo sapiens, UniProt P43220)
# Test: GLP-1R agonist cAMP stimulation assay (HEK293/GLP1R/CRE-LUC cells, cAMP dynamic 2 Kit)
# Format: cell-based
# Conditions: HEK293/CRE-Luc cell line stably expressing the GLP-1 Receptor, 30 min at 37° C.
# In short: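 cAMP measured by HTRF competition (d2-labelled cAMP with cryptate antibody, 1 h, room temperature, protected from light). Before that, GLP1R/CRE-Luc HEK293 cells (1000/well) were exposed for 30 min at 37 °C to half-log compound dilutions in DPBS containing IBMX 0.5 mM and BSA 0.1%.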
# Chain of GLP-1 Receptor (P43220 24-463, species assumed): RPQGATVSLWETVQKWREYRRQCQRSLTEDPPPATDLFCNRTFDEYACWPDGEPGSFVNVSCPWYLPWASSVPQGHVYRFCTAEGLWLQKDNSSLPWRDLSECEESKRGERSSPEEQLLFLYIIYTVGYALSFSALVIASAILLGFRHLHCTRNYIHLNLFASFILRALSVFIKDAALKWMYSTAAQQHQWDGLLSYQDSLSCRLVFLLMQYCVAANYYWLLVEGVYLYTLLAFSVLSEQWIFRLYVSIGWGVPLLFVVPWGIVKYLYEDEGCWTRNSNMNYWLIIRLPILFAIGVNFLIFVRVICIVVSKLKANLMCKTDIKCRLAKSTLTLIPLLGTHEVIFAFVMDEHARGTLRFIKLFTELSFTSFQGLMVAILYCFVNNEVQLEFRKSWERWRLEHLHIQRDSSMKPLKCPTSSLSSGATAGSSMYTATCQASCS
row,Compound,pEC50
1,"O=C(Nc1ccc2c(c1)nc(CN1CCC(c3cccc(OCc4ccc(Cl)cc4F)n3)CC1)n2C[C@@H]1CCO1)C1CCCNC1 (stereo partly drawn) [Compound 203a, N-{2-[(4-{6-[(4-chloro-2-fluorophenyl)methoxy]pyridin-2-yl}piperidin-1-yl)methyl]-1-{[(2S)-oxetan-2-yl]methyl}-1H-1,3-benzodiazol-5-yl}piperidine-3-carboxamide]",8.49
2,"C[C@]1(c2ccc(C#N)cc2F)Oc2cccc(C3CCN(Cc4nc5cc(-c6noc(=O)[nH]6)ncc5n4C[C@@H]4CCO4)CC3)c2O1 [Compound 433a, 3-fluoro-4-[(2S)-2-methyl-4-{1-[(3-{[(2S)-oxetan-2-yl]methyl}-6-(5-oxo-4,5-dihydro-1,2,4-oxadiazol-3-yl)-3H-imidazo[4,5-c]pyridin-2-yl)methyl]piperidin-4-yl}-2H-1,3-benzodioxol-2-yl]benzonitrile]",10.89
3,"N#Cc1cccc(C(=O)Nc2ccc3c(c2)nc(CN2CCC(c4cccc(OCc5ccc(Cl)cc5F)n4)CC2)n3C[C@@H]2CCO2)c1 [Compound 169a, N-{2-[(4-{6-[(4-chloro-2-fluorophenyl)methoxy]pyridin-2-yl}piperidin-1-yl)methyl]-1-{[(2S)-oxetan-2-yl]methyl}-1H-1,3-benzodiazol-5-yl}-3-cyanobenzamide]",9.04
4,"CC1(c2ccc(Cl)cc2F)Oc2cccc(C3CCN(Cc4nc5cc(-c6nnc(C(F)(F)F)[nH]6)cnc5n4C[C@H]4CCOC4)CC3)c2O1 (stereo partly drawn) [Compound 401a, 4-[2-(4-chloro-2-fluorophenyl)-2-methyl-2H-1,3-benzodioxol-4-yl]-1-[(3-{[(3R)-oxolan-3-yl]methyl}-6-[5-(trifluoromethyl)-4H-1,2,4-triazol-3-yl]-3H-imidazo[4,5-b]pyridin-2-yl)methyl]piperidine]",9.22
5,"O=C(CC(F)(F)F)Nc1ccc2c(c1)nc(CN1CCC(c3cccc(OCc4ccc(Cl)cc4F)n3)CC1)n2C[C@@H]1CCO1 [Compound 150a, N-{2-[(4-{6-[(4-chloro-2-fluorophenyl)methoxy]pyridin-2-yl}piperidin-1-yl)methyl]-1-{[(2S)-oxetan-2-yl]methyl}-1H-1,3-benzodiazol-5-yl}-3,3,3-trifluoropropanamide]",9.21
6,"C[C@H]1CN(c2ccc(F)c(OCc3ccc(C#N)cc3F)c2)CCN1Cc1nc2cc(-c3nnc(C(F)(F)F)[nH]3)nnc2n1C[C@@H]1CCO1 [Compound 522a, 3-fluoro-4-({2-fluoro-5-[(3S)-3-methyl-4-[(7-{[(2S)-oxetan-2-yl]methyl}-3-[5-(trifluoromethyl)-4H-1,2,4-triazol-3-yl]-7H-imidazo[4,5-c]pyridazin-6-yl)methyl]piperazin-1-yl]phenoxy}methyl)benzonitrile]",9.34
7,"C[C@]1(c2ccc(Cl)cc2F)Oc2cccc(C3CCN(Cc4nc5cc(-c6nnc(C(F)F)[nH]6)ncc5n4C[C@@H]4CCO4)CC3)c2O1 [Compound 360a, 4-[(2S)-2-(4-chloro-2-fluorophenyl)-2-methyl-2H-1,3-benzodioxol-4-yl]-1-({6-[5-(difluoromethyl)-4H-1,2,4-triazol-3-yl]-3-{[(2S)-oxetan-2-yl]methyl}-3H-imidazo[4,5-c]pyridin-2-yl}methyl)piperidine]",11.04
8,"CO[C@H](C)Cn1c(CN2CCC(c3cccc4c3OC(C)(c3ccc(Cl)cn3)O4)CC2)nc2cc(-c3noc(=O)[nH]3)ncc21 (stereo partly drawn) [Compound 427a, 3-[2-({4-[2-(5-chloropyridin-2-yl)-2-methyl-2H-1,3-benzodioxol-4-yl]piperidin-1-yl}methyl)-3-[(2R)-2-methoxypropyl]-3H-imidazo[4,5-c]pyridin-6-yl]-4,5-dihydro-1,2,4-oxadiazol-5-one]",9.12
9,"O=C(Nc1ccc2c(c1)nc(CN1CCC(c3cccc(OCc4ccc(Cl)cc4F)n3)CC1)n2C[C@@H]1CCO1)N1CCC(F)C1 (stereo partly drawn) [Compound 206a, N-{2-[(4-{6-[(4-chloro-2-fluorophenyl)methoxy]pyridin-2-yl}piperidin-1-yl)methyl]-1-{[(2S)-oxetan-2-yl]methyl}-1H-1,3-benzodiazol-5-yl}-3-fluoropyrrolidine-1-carboxamide]",9.11
